Reference: PubChem BioAssay (NCI)
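Five compound concentrations were applied to cells in 96-well plates for 48 hours; endpoints were derived by simple linear interpolation of the resulting dose-response curve. The concentration for full growth arrest is given as TGI.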

System: A549 NSCLC
Experiment: DTP human tumour cell line panel, 48 h

Row | SMILES | TGI [µM]
1 | O=Cc1ccc2c(c1)CC1(C2)Cc2ccc3c(c2C1)CCC3 (stereo unspecified) | > 100
2 | C=C(C)C(CC=C(C)C)CC12CC(CC=C(C)C)C(C)(C)C(CC=C(C)C)(C(=O)C(Cc3ccc(O)c(O)c3)=C1O)C2=O (stereo unspecified) | > 100
3 | CCC(=O)NC(Nc1cccc(F)c1C)(C(F)(F)F)C(F)(F)F | > 100
4 | CCCCCN=Cc1c(O)c(O)c(C(C)C)c2cc(C)c(-c3c(C)cc4c(C(C)C)c(O)c(O)c(C=NCCCCC)c4c3O)c(O)c12 | > 100
5 | CCc1nc(N)nc(N)c1-c1ccc2nn(-c3ccccc3)[n+]([O-])c2c1 | 27.8
6 | O=C(O)/C=N\Nc1nc2ccccc2[nH]1 | > 100
7 | Nc1nc(N)c2[nH]c(CNc3ccc(C(=O)O)cc3)nc2n1 | > 100
8 | CNn1c(-c2ccccc2)n[nH]c1=O | > 100
9 | O=c1[nH]c(-c2ccc3ccccc3c2)nc2ccccc12 | > 100
10 | COc1ccc(CC2c3cc(Oc4cc(CC5c6cc(OC)c(OC)cc6CCN5C)ccc4O)c(OC)cc3CCN2C)cc1 (stereo unspecified) | 13.4
11 | COc1ccc(C(C)NNC(=O)c2ccncc2)c(OC)c1 (stereo unspecified) | > 100
12 | CC(C)(C)OC(=O)NCC(O)CNC(=O)OC(C)(C)C | > 100
13 | O=[N+]([O-])c1cc2oc(COc3ccccc3)nc2cc1Cl | > 100
14 | CC(C)(C)c1cc(C(P(=O)(c2ccccc2)c2ccccc2)P(=O)(c2ccccc2)c2ccccc2)cc(C(C)(C)C)c1O | > 8.98
15 | CCc1nc(N)nc(N)c1-c1ccc(Cl)c(Cl)c1 | > 100
16 | NS(=O)(=O)c1nn2c(Br)c(-c3ccccc3)nc2s1 | 21.6
17 | CCN(CC)c1c(N(CC)CC)c(=O)c1=O | 43.7
18 | CN(C)Cc1cc(C(=O)/C=C/c2ccc(Cl)cc2)cc(CN(C)C)c1O | 28.7
19 | COc1cc(-c2cc(=O)c3c(OC)c(OC)c(OC)c(OC)c3o2)c(OC)c(OC)c1OC | > 100
20 | COc1nc(C(=O)NNC(=O)c2nc(OC)c3ccccc3c2-c2ccccc2)c(-c2ccccc2)c2ccccc12 | > 100
21 | COc1cc(/C=C2\CCC(C)C3C2=NN(C(C)=O)C3c2cc(OC)c(OC)c(OC)c2)cc(OC)c1OC (stereo unspecified) | > 100
22 | NC(=O)C(N)Cc1ccc(O)cn1 (stereo unspecified) | > 100
23 | COC(=O)C(C)(NC(=O)C(CC(=O)OC(C)(C)C)NC(=O)OC(C)(C)C)c1ccccc1 (stereo unspecified) | > 100
24 | COc1ccc2nc3ccc(OC)cc3c(S(=O)CCCl)c2c1 (stereo unspecified) | 48

System: BT-549 breast
Experiment: DTP human tumour cell line panel, 48 h

Row | SMILES | TGI [µM]
25 | O=Cc1ccc2c(c1)CC1(C2)Cc2ccc3c(c2C1)CCC3 (stereo unspecified) | 18.6
26 | C=C(C)C(CC=C(C)C)CC12CC(CC=C(C)C)C(C)(C)C(CC=C(C)C)(C(=O)C(Cc3ccc(O)c(O)c3)=C1O)C2=O (stereo unspecified) | > 100
27 | CCC(=O)NC(Nc1cccc(F)c1C)(C(F)(F)F)C(F)(F)F | > 100
28 | CCCCCN=Cc1c(O)c(O)c(C(C)C)c2cc(C)c(-c3c(C)cc4c(C(C)C)c(O)c(O)c(C=NCCCCC)c4c3O)c(O)c12 | 38.7
29 | CCc1nc(N)nc(N)c1-c1ccc2nn(-c3ccccc3)[n+]([O-])c2c1 | 26.3
30 | O=C(O)/C=N\Nc1nc2ccccc2[nH]1 | > 100
31 | Nc1nc(N)c2[nH]c(CNc3ccc(C(=O)O)cc3)nc2n1 | > 100
32 | CNn1c(-c2ccccc2)n[nH]c1=O | > 100
33 | O=c1[nH]c(-c2ccc3ccccc3c2)nc2ccccc12 | > 100
34 | COc1ccc(CC2c3cc(Oc4cc(CC5c6cc(OC)c(OC)cc6CCN5C)ccc4O)c(OC)cc3CCN2C)cc1 (stereo unspecified) | 13.4
35 | COc1ccc(C(C)NNC(=O)c2ccncc2)c(OC)c1 (stereo unspecified) | > 100
36 | CC(C)(C)OC(=O)NCC(O)CNC(=O)OC(C)(C)C | > 100
37 | O=[N+]([O-])c1cc2oc(COc3ccccc3)nc2cc1Cl | 60
38 | CC(C)(C)c1cc(C(P(=O)(c2ccccc2)c2ccccc2)P(=O)(c2ccccc2)c2ccccc2)cc(C(C)(C)C)c1O | > 8.23
39 | CCc1nc(N)nc(N)c1-c1ccc(Cl)c(Cl)c1 | > 100
40 | NS(=O)(=O)c1nn2c(Br)c(-c3ccccc3)nc2s1 | 7.69
41 | CCN(CC)c1c(N(CC)CC)c(=O)c1=O | 35.8
42 | CN(C)Cc1cc(C(=O)/C=C/c2ccc(Cl)cc2)cc(CN(C)C)c1O | 11.3
43 | COc1cc(-c2cc(=O)c3c(OC)c(OC)c(OC)c(OC)c3o2)c(OC)c(OC)c1OC | 56.8
44 | COc1nc(C(=O)NNC(=O)c2nc(OC)c3ccccc3c2-c2ccccc2)c(-c2ccccc2)c2ccccc12 | > 100
45 | COc1cc(/C=C2\CCC(C)C3C2=NN(C(C)=O)C3c2cc(OC)c(OC)c(OC)c2)cc(OC)c1OC (stereo unspecified) | > 100
46 | NC(=O)C(N)Cc1ccc(O)cn1 (stereo unspecified) | > 100
47 | COC(=O)C(C)(NC(=O)C(CC(=O)OC(C)(C)C)NC(=O)OC(C)(C)C)c1ccccc1 (stereo unspecified) | > 100
48 | COc1ccc2nc3ccc(OC)cc3c(S(=O)CCCl)c2c1 (stereo unspecified) | 30.3

System: CAKI-1 renal
Experiment: DTP human tumour cell line panel, 48 h

Row | SMILES | TGI [µM]
49 | O=Cc1ccc2c(c1)CC1(C2)Cc2ccc3c(c2C1)CCC3 (stereo unspecified) | 46.8
50 | C=C(C)C(CC=C(C)C)CC12CC(CC=C(C)C)C(C)(C)C(CC=C(C)C)(C(=O)C(Cc3ccc(O)c(O)c3)=C1O)C2=O (stereo unspecified) | > 100
51 | CCC(=O)NC(Nc1cccc(F)c1C)(C(F)(F)F)C(F)(F)F | > 100
52 | CCCCCN=Cc1c(O)c(O)c(C(C)C)c2cc(C)c(-c3c(C)cc4c(C(C)C)c(O)c(O)c(C=NCCCCC)c4c3O)c(O)c12 | 97.6
53 | CCc1nc(N)nc(N)c1-c1ccc2nn(-c3ccccc3)[n+]([O-])c2c1 | 18.2
54 | O=C(O)/C=N\Nc1nc2ccccc2[nH]1 | > 100
55 | Nc1nc(N)c2[nH]c(CNc3ccc(C(=O)O)cc3)nc2n1 | > 100
56 | CNn1c(-c2ccccc2)n[nH]c1=O | > 100
57 | O=c1[nH]c(-c2ccc3ccccc3c2)nc2ccccc12 | > 100
58 | COc1ccc(CC2c3cc(Oc4cc(CC5c6cc(OC)c(OC)cc6CCN5C)ccc4O)c(OC)cc3CCN2C)cc1 (stereo unspecified) | 9.99
59 | COc1ccc(C(C)NNC(=O)c2ccncc2)c(OC)c1 (stereo unspecified) | > 100
60 | CC(C)(C)OC(=O)NCC(O)CNC(=O)OC(C)(C)C | > 100
61 | O=[N+]([O-])c1cc2oc(COc3ccccc3)nc2cc1Cl | 67.6
62 | CC(C)(C)c1cc(C(P(=O)(c2ccccc2)c2ccccc2)P(=O)(c2ccccc2)c2ccccc2)cc(C(C)(C)C)c1O | 9.9
63 | CCc1nc(N)nc(N)c1-c1ccc(Cl)c(Cl)c1 | > 100
64 | NS(=O)(=O)c1nn2c(Br)c(-c3ccccc3)nc2s1 | 9.72
65 | CCN(CC)c1c(N(CC)CC)c(=O)c1=O | 9.62
66 | CN(C)Cc1cc(C(=O)/C=C/c2ccc(Cl)cc2)cc(CN(C)C)c1O | 20
67 | COc1cc(-c2cc(=O)c3c(OC)c(OC)c(OC)c(OC)c3o2)c(OC)c(OC)c1OC | > 100
68 | COc1nc(C(=O)NNC(=O)c2nc(OC)c3ccccc3c2-c2ccccc2)c(-c2ccccc2)c2ccccc12 | > 100
69 | COc1cc(/C=C2\CCC(C)C3C2=NN(C(C)=O)C3c2cc(OC)c(OC)c(OC)c2)cc(OC)c1OC (stereo unspecified) | > 100
70 | NC(=O)C(N)Cc1ccc(O)cn1 (stereo unspecified) | > 100
71 | COC(=O)C(C)(NC(=O)C(CC(=O)OC(C)(C)C)NC(=O)OC(C)(C)C)c1ccccc1 (stereo unspecified) | > 100
72 | COc1ccc2nc3ccc(OC)cc3c(S(=O)CCCl)c2c1 (stereo unspecified) | 6.9

System: COLO 205 colon
Experiment: DTP human tumour cell line panel, 48 h

Row | SMILES | TGI [µM]
73 | O=Cc1ccc2c(c1)CC1(C2)Cc2ccc3c(c2C1)CCC3 (stereo unspecified) | 43.7
74 | C=C(C)C(CC=C(C)C)CC12CC(CC=C(C)C)C(C)(C)C(CC=C(C)C)(C(=O)C(Cc3ccc(O)c(O)c3)=C1O)C2=O (stereo unspecified) | > 100
75 | CCC(=O)NC(Nc1cccc(F)c1C)(C(F)(F)F)C(F)(F)F | > 100
76 | CCCCCN=Cc1c(O)c(O)c(C(C)C)c2cc(C)c(-c3c(C)cc4c(C(C)C)c(O)c(O)c(C=NCCCCC)c4c3O)c(O)c12 | 9.15
77 | CCc1nc(N)nc(N)c1-c1ccc2nn(-c3ccccc3)[n+]([O-])c2c1 | 22.3
78 | O=C(O)/C=N\Nc1nc2ccccc2[nH]1 | > 100
79 | Nc1nc(N)c2[nH]c(CNc3ccc(C(=O)O)cc3)nc2n1 | > 100
80 | CNn1c(-c2ccccc2)n[nH]c1=O | > 100
81 | O=c1[nH]c(-c2ccc3ccccc3c2)nc2ccccc12 | > 100
82 | COc1ccc(CC2c3cc(Oc4cc(CC5c6cc(OC)c(OC)cc6CCN5C)ccc4O)c(OC)cc3CCN2C)cc1 (stereo unspecified) | 14.7
83 | COc1ccc(C(C)NNC(=O)c2ccncc2)c(OC)c1 (stereo unspecified) | > 100
84 | CC(C)(C)OC(=O)NCC(O)CNC(=O)OC(C)(C)C | > 100
85 | O=[N+]([O-])c1cc2oc(COc3ccccc3)nc2cc1Cl | 36.6
86 | CC(C)(C)c1cc(C(P(=O)(c2ccccc2)c2ccccc2)P(=O)(c2ccccc2)c2ccccc2)cc(C(C)(C)C)c1O | 3.31
87 | CCc1nc(N)nc(N)c1-c1ccc(Cl)c(Cl)c1 | > 100
88 | NS(=O)(=O)c1nn2c(Br)c(-c3ccccc3)nc2s1 | 18.4
89 | CCN(CC)c1c(N(CC)CC)c(=O)c1=O | 8.24
90 | CN(C)Cc1cc(C(=O)/C=C/c2ccc(Cl)cc2)cc(CN(C)C)c1O | 10.7
91 | COc1cc(-c2cc(=O)c3c(OC)c(OC)c(OC)c(OC)c3o2)c(OC)c(OC)c1OC | > 100
92 | COc1nc(C(=O)NNC(=O)c2nc(OC)c3ccccc3c2-c2ccccc2)c(-c2ccccc2)c2ccccc12 | > 100
93 | COc1cc(/C=C2\CCC(C)C3C2=NN(C(C)=O)C3c2cc(OC)c(OC)c(OC)c2)cc(OC)c1OC (stereo unspecified) | > 100
94 | NC(=O)C(N)Cc1ccc(O)cn1 (stereo unspecified) | > 100
95 | COC(=O)C(C)(NC(=O)C(CC(=O)OC(C)(C)C)NC(=O)OC(C)(C)C)c1ccccc1 (stereo unspecified) | > 100
96 | COc1ccc2nc3ccc(OC)cc3c(S(=O)CCCl)c2c1 (stereo unspecified) | 3.13

System: HCC-2998 colon
Experiment: DTP human tumour cell line panel, 48 h

Row | SMILES | TGI [µM]
97 | O=Cc1ccc2c(c1)CC1(C2)Cc2ccc3c(c2C1)CCC3 (stereo unspecified) | > 60.3
98 | C=C(C)C(CC=C(C)C)CC12CC(CC=C(C)C)C(C)(C)C(CC=C(C)C)(C(=O)C(Cc3ccc(O)c(O)c3)=C1O)C2=O (stereo unspecified) | > 100
99 | CCC(=O)NC(Nc1cccc(F)c1C)(C(F)(F)F)C(F)(F)F | > 100
100 | CCCCCN=Cc1c(O)c(O)c(C(C)C)c2cc(C)c(-c3c(C)cc4c(C(C)C)c(O)c(O)c(C=NCCCCC)c4c3O)c(O)c12 | 35.9
101 | CCc1nc(N)nc(N)c1-c1ccc2nn(-c3ccccc3)[n+]([O-])c2c1 | 20.5
102 | O=C(O)/C=N\Nc1nc2ccccc2[nH]1 | > 100
103 | Nc1nc(N)c2[nH]c(CNc3ccc(C(=O)O)cc3)nc2n1 | > 100
104 | CNn1c(-c2ccccc2)n[nH]c1=O | > 100
105 | O=c1[nH]c(-c2ccc3ccccc3c2)nc2ccccc12 | > 100
106 | COc1ccc(CC2c3cc(Oc4cc(CC5c6cc(OC)c(OC)cc6CCN5C)ccc4O)c(OC)cc3CCN2C)cc1 (stereo unspecified) | 2.64
107 | COc1ccc(C(C)NNC(=O)c2ccncc2)c(OC)c1 (stereo unspecified) | > 100
108 | CC(C)(C)OC(=O)NCC(O)CNC(=O)OC(C)(C)C | > 100
109 | O=[N+]([O-])c1cc2oc(COc3ccccc3)nc2cc1Cl | 43.3
110 | CC(C)(C)c1cc(C(P(=O)(c2ccccc2)c2ccccc2)P(=O)(c2ccccc2)c2ccccc2)cc(C(C)(C)C)c1O | 4.45
111 | CCc1nc(N)nc(N)c1-c1ccc(Cl)c(Cl)c1 | > 100
112 | NS(=O)(=O)c1nn2c(Br)c(-c3ccccc3)nc2s1 | 16.7
113 | CCN(CC)c1c(N(CC)CC)c(=O)c1=O | 39.9
114 | CN(C)Cc1cc(C(=O)/C=C/c2ccc(Cl)cc2)cc(CN(C)C)c1O | 34.1
115 | COc1cc(-c2cc(=O)c3c(OC)c(OC)c(OC)c(OC)c3o2)c(OC)c(OC)c1OC | > 100
116 | COc1nc(C(=O)NNC(=O)c2nc(OC)c3ccccc3c2-c2ccccc2)c(-c2ccccc2)c2ccccc12 | > 100
